Eleven compounds from patent EP3383875B1, “3-PYRIMIDINYL PYRROLO [2,3-B] PYRIDINE AS ANTICANCER AGENTS AND THE PROCESS FOR THE PREPARATION THEREOF” (Council Of Scientific & Industrial Research, priority 2015, dated 2017) can be followed below.

One assay deals with CDK-2/cyclin A (Homo sapiens, UniProt P24941). In words: CDK inhibition assay, CDK-2/cyclin A against Histone HI, 33P-ATP. It is filed as biochemical. The following applies: at 500 nM. Here is the method: Compounds were evaluated for their ability to inhibit CDK2 and CDK9 as given below.
CDK-2/cyclin A (5-20 mU diluted in 50 mM Hepes pH 7.5, 1 mM DTT, 0.02% Brij35, 100 mM NaCl) was assayed against Histone HI in a final volume of 25.5 µl containing 50 mM Hepes pH7.5, 1 mM DTT, 0.02% Brij35, 100 mM NaCl, Histone HI (1 mg/ml), 10 mM magnesium acetate and 0.02 mM [33P-g-ATP](500-1000 cpm/pmole) and incubated for 30 min at room temperature. Assays were stopped by addition of 5 µl of 0.5 M (3%) orthophosphoric acid and then harvested onto P81 Unifilter plates with a wash buffer of 50 mM orthophosphoric acid.

The target of the next assay is CDK-9/Cyclin T1 (Homo sapiens, UniProt P50750). Description: CDK inhibition assay, CDK-9/Cyclin T1 against substrate peptide, 33P-ATP. The format is biochemical. The note with it: at 500 nM. Here is the method: (50-1000 cpm/pmole) and incubated for 30 min at room temperature. Assays were stopped by addition of 5 µl of 0.5 M (3%) orthophosphoric acid and then harvested onto P81 Unifilter plates with a wash buffer of 50 mM orthophosphoric acid.
CDK-9/Cyclin T1, sequence (P50750 whole entry): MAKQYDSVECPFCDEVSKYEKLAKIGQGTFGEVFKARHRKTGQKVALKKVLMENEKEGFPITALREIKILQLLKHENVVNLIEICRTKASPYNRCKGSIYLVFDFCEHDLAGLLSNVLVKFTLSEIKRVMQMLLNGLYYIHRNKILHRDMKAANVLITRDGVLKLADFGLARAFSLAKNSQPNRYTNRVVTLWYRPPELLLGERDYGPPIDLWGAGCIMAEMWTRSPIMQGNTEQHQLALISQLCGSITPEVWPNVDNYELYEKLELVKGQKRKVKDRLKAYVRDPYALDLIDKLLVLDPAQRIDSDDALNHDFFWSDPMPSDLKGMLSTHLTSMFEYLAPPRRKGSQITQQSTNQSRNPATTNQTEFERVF
CDK-9/Cyclin T1, sequence (O60563 whole entry partner): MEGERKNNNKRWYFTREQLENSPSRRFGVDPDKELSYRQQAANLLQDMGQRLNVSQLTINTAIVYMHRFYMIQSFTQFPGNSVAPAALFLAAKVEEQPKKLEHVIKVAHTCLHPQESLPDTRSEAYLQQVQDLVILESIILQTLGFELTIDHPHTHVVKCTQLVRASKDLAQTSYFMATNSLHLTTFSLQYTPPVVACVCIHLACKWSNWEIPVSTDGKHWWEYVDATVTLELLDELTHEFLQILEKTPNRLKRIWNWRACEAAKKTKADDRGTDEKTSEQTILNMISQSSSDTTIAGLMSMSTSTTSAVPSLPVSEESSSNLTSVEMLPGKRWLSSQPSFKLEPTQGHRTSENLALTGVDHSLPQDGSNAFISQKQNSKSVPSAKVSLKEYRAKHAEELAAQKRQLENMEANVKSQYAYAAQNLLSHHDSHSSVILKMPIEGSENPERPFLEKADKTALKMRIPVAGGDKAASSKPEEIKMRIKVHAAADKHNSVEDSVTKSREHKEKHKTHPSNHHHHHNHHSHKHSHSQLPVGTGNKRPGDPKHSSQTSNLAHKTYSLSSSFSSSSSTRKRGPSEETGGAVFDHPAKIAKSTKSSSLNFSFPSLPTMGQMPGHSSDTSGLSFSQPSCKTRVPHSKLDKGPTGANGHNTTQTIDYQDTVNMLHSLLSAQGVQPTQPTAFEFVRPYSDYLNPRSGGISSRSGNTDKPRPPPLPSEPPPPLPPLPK

[1] abbreviates: Table-6, read-out: In vitro CDK2 % of inhibition.
Where [2] appears, read: read-out: inhibition against CDK2.
Where [3] appears, read: Table-6, read-out: In vitro CDK9 % of inhibition.
Where [4] appears, read: read-out: inhibition against CDK9.
Where [5] appears, read: Table-7, read-out: In vitro CDK2 % of inhibition.
Setting [6] is: Table-7, read-out: In vitro CDK9 % of inhibition.

Structures are written as SMILES. Like-named read-outs stand apart in the source and are kept apart here. Bounds are passed on as bounds.

For the compound `CCc1ccccc1-c1cnc2[nH]cc(-c3ccnc(NC4CCCC4)n3)c2c1` [1A30, N-cyclopentyl-4-(5-(2-ethylphenyl)-1H-pyrrolo[2,3-b]pyridin-3-yl)pyrimidin-2-amine], the inhibition at 0.5 µM at CDK-2/cyclin A (setting [1]), at CDK-2/cyclin A (setting [2]), on CDK-9/Cyclin T1 (setting [3]) and on CDK-9/Cyclin T1 (setting [4]) was > 50% in each case.
Take `FC(F)(F)c1cccc(-c2cnc3[nH]cc(-c4ccnc(NC5CCCC5)n4)c3c2)c1` [1A24, N-cyclopentyl-4-(5-(3-(trifluoromethyl)phenyl)-1H-pyrrolo[2,3-b]pyridin-3-yl)pyrimidin-2-amine]: the inhibition at 0.5 µM at CDK-2/cyclin A (setting [1]), at CDK-2/cyclin A (setting [2]), at CDK-9/Cyclin T1 (setting [3]) and at CDK-9/Cyclin T1 (setting [4]) was > 50% in each case.
On to `COc1ccc2[nH]c(-c3cnc4[nH]cc(-c5ccnc(NC6CCCCCC6)n5)c4c3)cc2c1` [1A57, N-cycloheptyl-4-(5-(5-methoxy-1H-indol-2-yl)-1H-pyrrolo[2,3-b]pyridin-3-yl)pyrimidin-2-amine], for which the inhibition at 0.5 µM at CDK-2/cyclin A (setting [5]), on CDK-2/cyclin A (setting [2]), on CDK-9/Cyclin T1 (setting [6]) and at CDK-9/Cyclin T1 (setting [4]) was > 70% in each case.
As for `Clc1ccc(-c2cnc3[nH]cc(-c4ccnc(NC5CCCCCC5)n4)c3c2)cc1` [1A52, 4-(5-(4-chlorophenyl)-1H-pyrrolo[2,3-b]pyridin-3-yl)-N-cycloheptylpyrimidin-2-amine], the inhibition at 0.5 µM at CDK-2/cyclin A (setting [5]), on CDK-2/cyclin A (setting [2]), on CDK-9/Cyclin T1 (setting [6]) and on CDK-9/Cyclin T1 (setting [4]) was > 70% each time.
In the case of `O=Cc1ccc(-c2cnc3[nH]cc(-c4ccnc(NC5CCCCCC5)n4)c3c2)cc1` [1A53, 4-(3-(2-(cycloheptylamino)pyrimidin-4-yl)-1H-pyrrolo[2,3-b]pyridin-5-yl)benzaldehyde], the inhibition at 0.5 µM on CDK-2/cyclin A (setting [5]), on CDK-2/cyclin A (setting [2]), at CDK-9/Cyclin T1 (setting [6]) and on CDK-9/Cyclin T1 (setting [4]) was > 70% each time.
In the case of `c1ccc2c(-c3cnc4[nH]cc(-c5ccnc(NC6CCCC6)n5)c4c3)cccc2c1` [1A34, N-cyclopentyl-4-(5-(naphthalen-1-yl)-1H-pyrrolo[2,3-b]pyridin-3-yl)pyrimidin-2-amine], the inhibition at 0.5 µM on CDK-2/cyclin A (setting [1]) and on CDK-9/Cyclin T1 (setting [3]) was > 50% each time.
Turning to `FC(F)(F)c1ccc(-c2cnc3[nH]cc(-c4ccnc(NC5CCCC5)n4)c3c2)cc1` [1A21, N-cyclopentyl-4-(5-(4-(trifluoromethyl)phenyl)-1H-pyrrolo[2,3-b]pyridin-3-yl)pyrimidin-2-amine], the inhibition at 0.5 µM on CDK-2/cyclin A (setting [1]) and on CDK-9/Cyclin T1 (setting [3]) was < 50% throughout.
Consider `Fc1cccc(-c2cnc3[nH]cc(-c4ccnc(NC5CCCC5)n4)c3c2)c1` [1A25, N-cyclopentyl-4-(5-(3-fluorophenyl)-1H-pyrrolo[2,3-b]pyridin-3-yl)pyrimidin-2-amine], for which the inhibition at 0.5 µM on CDK-2/cyclin A (setting [1]) and on CDK-9/Cyclin T1 (setting [3]) was > 70% throughout.
On to `Cc1ccc(-c2cnc3[nH]cc(-c4ccnc(NC5CCCCCC5)n4)c3c2)cc1` [1A46, N-cycloheptyl-4-(5-(p-tolyl)-1H-pyrrolo[2,3-b]pyridin-3-yl)pyrimidin-2-amine], for which the inhibition at 0.5 µM on CDK-2/cyclin A (setting [1]), at CDK-2/cyclin A (setting [2]), at CDK-9/Cyclin T1 (setting [3]) and on CDK-9/Cyclin T1 (setting [4]) was > 50% throughout.
Regarding `c1cncc(-c2cnc3[nH]cc(-c4ccnc(NC5CCCC5)n4)c3c2)c1` [1A35, N-cyclopentyl-4-(5-(pyridin-3-yl)-1H-pyrrolo[2,3-b]pyridin-3-yl)pyrimidin-2-amine], the inhibition at 0.5 µM at CDK-2/cyclin A (setting [1]), on CDK-2/cyclin A (setting [2]), on CDK-9/Cyclin T1 (setting [3]) and on CDK-9/Cyclin T1 (setting [4]) was > 50% in each case.
In the case of `c1ccc2c(-c3cnc4[nH]cc(-c5ccnc(NC6CCCCCC6)n5)c4c3)cccc2c1` [1A54, N-cycloheptyl-4-(5-(naphthalen-1-yl)-1H-pyrrolo[2,3-b]pyridin-3-yl)pyrimidin-2-amine], the inhibition at 0.5 µM on CDK-2/cyclin A (setting [5]), at CDK-2/cyclin A (setting [2]), at CDK-9/Cyclin T1 (setting [6]) and at CDK-9/Cyclin T1 (setting [4]) was > 70% throughout.
